Laboratory results reported in patent US7935670B2, “Hepatitis C virus inhibitors” (Bristol-Myers Squibb Company, priority 2006, dated 2011).

What was measured:
[1] = tested on: HCV replicon in HUH-7 cells; assay: HCV replicon FRET assay; type: cell-based, HCV strain 1b; conditions: Hepatitis C virus, Huh-7, read-out: Activity Range (EC50)
From the text: An HCV replicon whole cell system was established as described by Lohmann V, Korner F, Koch J, Herian U, Theilmann L, Bartenschlager R., Science 285(5424): 110-3 (1999). This system enabled us to evaluate the effects of our HCV Protease compounds on HCV RNA replication. Briefly, using the HCV strain 1b sequence described in the Lohmann paper (Assession number: AJ238799), an HCV cDNA was synthesized by Operon Technologies, Inc. (Alameda, Calif.), and the full-length replicon was then assembled in plasmid pGem9zf(+) (Promega, Madison, Wis.) using standard molecular biology techniques. The replicon consists of (i) the HCV 5′ UTR fused to the first 12 amino acids of the capsid protein, (ii) the neomycin phosphotransferase gene (neo), (iii) the IRES from encephalomyocarditis virus (EMCV), and (iv) HCV NS3 to NS5B genes and the HCV 3′ UTR. Plasmid DNAs were linearized with ScaI and RNA transcripts were synthesized in vitro using the T7 MegaScript transcription kit (Ambion, Austin, Tex.) according to manufacturer's directions. In vitro transcripts of the cDNA were transfected into the human hepatoma cell line, HUH-7. […] Resulting cell lines were characterized for positive and negative strand RNA production and protein production over time.
The HCV replicon FRET assay was developed to monitor the inhibitory effects of compounds described in the disclosure on HCV viral replication. HUH-7 cells, constitutively expressing the HCV replicon, were grown in Dulbecco's Modified Eagle Media (DMEM) (Gibco-BRL) containing 10% Fetal calf serum (FCS) (Sigma) and 1 mg/ml G418 (Gibco-BRL). Cells were seeded the night before (1.5×10^4 cells/well) in 96-well tissue-culture sterile plates. Compound and no compound controls were prepared in DMEM containing 4% FCS, 1:100 Penicillin/Streptomysin (Gibco-BRL), 1:100 L-glutamine and 5% DMSO in the dilution plate (0.5% DMSO final concentration in the assay). Compound/DMSO mixes were added to the cells and incubated for 4 days at 37° C. After 4 days, cells were first assessed for cytotoxicity using alamar Blue (Trek Diagnotstic Systems) for a CC50 reading. The toxicity of compound (CC50) was determined by adding 1/10th volume of alamar Blue to the media incubating the cells. After 4 h, the fluorescence signal from each well was read, with an excitation wavelength at 530 nm and an emission wavelength of 580 nm, using the Cytofluor Series 4000 (Perspective Biosystems). Plates were then rinsed thoroughly with Phosphate-Buffered Saline (PBS) (3 times 150 μl). The cells were lysed with 25 μl of a lysis assay reagent containing an HCV protease substrate (5× cell Luciferase cell culture lysis reagent (Promega #E153A) diluted to 1× with distilled water, NaCl added to 150 mM final, the FRET peptide substrate (as described for the enzyme assay above) diluted to 10 μM final from a 2 mM stock in 100% DMSO. The plate was then placed into the Cytofluor 4000 instrument which had been set to 340 nm excitation/490 nm emission, automatic mode for 21 cycles and the plate read in a kinetic mode. EC50 determinations were carried out as described for the IC50 determinations.

[2] = molecular target: T1, HCV NS3/4A protease complex, BMS strain (UniProt P27958, species not given/STRAIN_BMS); assay: FRET peptide assay to monitor HCV NS3/4A proteolytic activity (BMS strain); type: biochemical, HCV genotype 1a; conditions: NS3/4A BMS strain; read-out: Activity Range (IC50)
T1 construct: given for H77 and J4L6S, not expressly for BMS; fused on or other part: three-lysine solubilising tail at the end of NS4A (given for the H77 and J4L6S constructs)
From the text: HCV NS3 protease complexes, derived from the BMS strain, H77 strain or J4L6S strain, were generated, as described below. These purified recombinant proteins were generated for use in a homogeneous assay (see below) to provide an indication of how effective compounds of the present disclosure would be in inhibiting HCV NS3 proteolytic activity.
Serum from an HCV-infected patient was obtained from Dr. T. Wright, San Francisco Hospital. An engineered full-length cDNA (compliment deoxyribonucleic acid) template of the HCV genome (BMS strain) was constructed from DNA fragments obtained by reverse transcription-PCR(RT-PCR) of serum RNA (ribonucleic acid) and using primers selected on the basis of homology between other genotype 1a strains. From the determination of the entire genome sequence, a genotype 1a was assigned to the HCV isolate according to the classification of Simmonds et al. (See P Simmonds, K A Rose, S Graham, S W Chan, F McOmish, B C Dow, E A Follett, P L Yap and H Marsden, J. Clin. Microbiol., 31(6), 1493-1503 (1993)). […] The infectious clones, H77 (1a genotype) and J4L6S (1b genotype) were obtained from R. Purcell (NIH) and the sequences are published in Genbank (AAB67036, see Yanagi, M., Purcell, R. H., Emerson, S. U. and Bukh, J. Proc. Natl. Acad. Sci. U.S.A. 94(16), 8738-8743 (1997); AF054247, see Yanagi, M., St Claire, M., Shapiro, M., Emerson, S. U., Purcell, R. H. and Bukh, J, Virology 244 (1), 161-172. (1998)).
NS3/4A protease complex-containing fractions were pooled and loaded on a desalting column Superdex-S200 pre-equilibrated with buffer D (25 mM HEPES, pH 7.5, 20% glycerol, 300 mM NaCl, 0.2% Triton X-100, 10 mM βME). Sample was loaded at a flow rate of 1 mL/min. NS3/4A protease complex-containing fractions were pooled and concentrated to approximately 0.5 mg/ml. The purity of the NS3/4A protease complexes, derived from the BMS, H77 and J4L6S strains, were judged to be greater than 90% by SDS-PAGE and mass spectrometry analyses. The enzyme was stored at −80° C., thawed on ice and diluted prior to use in assay buffer.
The purpose of this in vitro assay was to measure the inhibition of HCV NS3 protease complexes, derived from the BMS strain, H77 strain or J4L6S strain, as described above, by compounds of the present disclosure. This assay provides an indication of how effective compounds of the present disclosure would be in inhibiting HCV NS3 proteolytic activity.
In order to monitor HCV NS3/4A protease activity, an NS3/4A peptide substrate was used. The substrate was RET S1 (Resonance Energy Transfer Depsipeptide Substrate; AnaSpec, Inc. cat #22991)(FRET peptide), described by Taliani et al. in Anal. Biochem. 240(2):60-67 (1996). The sequence of this peptide is loosely based on the NS4A/NS4B natural cleavage site for the HCV NS3 protease except there is an ester linkage rather than an amide bond at the cleavage site. The peptide also contains a fluorescence donor, EDANS, near one end of the peptide and an acceptor, DABCYL, near the other end. The fluorescence of the peptide is quenched by […] resonance energy transfer (RET) between the donor and the acceptor, but as the NS3 protease cleaves the peptide the products are released from RET quenching and the fluorescence of the donor becomes apparent.
The peptide substrate was incubated with one of the three recombinant NS3/4A protease complexes, in the absence or presence of a compound of the present disclosure. The inhibitory effects of a compound were determined by monitoring the formation of fluorescent reaction product in real time using a Cytofluor Series 4000.
Assay buffer: 50 mM HEPES, pH 7.5; 0.15 M NaCl; 0.1% Triton; 15% Glycerol; 10 mM βME. Substrate: 2 μM final concentration (from a 2 mM stock solution in DMSO stored at −20° C.). HCV NS3/4A protease type 1a (1b), 2-3 nM final concentration (from a 5 μM stock solution in 25 mM HEPES, pH 7.5, 20% glycerol, 300 mM NaCl, 0.2% Triton-X100, 10 mM βME). […]

T1 sequence (P27958 1027-1657, change not shown, one chain of several): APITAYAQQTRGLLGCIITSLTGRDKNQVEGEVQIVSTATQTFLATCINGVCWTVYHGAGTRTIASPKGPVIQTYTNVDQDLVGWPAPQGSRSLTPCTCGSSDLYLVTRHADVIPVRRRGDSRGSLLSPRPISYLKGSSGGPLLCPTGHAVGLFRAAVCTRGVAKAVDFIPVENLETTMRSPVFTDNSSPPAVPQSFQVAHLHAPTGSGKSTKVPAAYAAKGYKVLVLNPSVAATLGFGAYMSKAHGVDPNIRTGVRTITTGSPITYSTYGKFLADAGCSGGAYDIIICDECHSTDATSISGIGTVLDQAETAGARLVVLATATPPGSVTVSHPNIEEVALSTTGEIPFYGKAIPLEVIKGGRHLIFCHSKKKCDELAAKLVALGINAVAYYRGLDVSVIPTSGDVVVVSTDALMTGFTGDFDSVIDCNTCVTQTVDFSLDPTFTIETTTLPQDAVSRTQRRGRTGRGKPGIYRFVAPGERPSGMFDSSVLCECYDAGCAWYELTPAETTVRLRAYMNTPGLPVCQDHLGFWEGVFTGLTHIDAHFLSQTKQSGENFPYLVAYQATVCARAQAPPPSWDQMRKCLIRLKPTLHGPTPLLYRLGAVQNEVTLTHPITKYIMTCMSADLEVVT

| SMILES | EC50 [1] | IC50 [2] |
| --- | --- | --- |
| C=C[C@@H]1C[C@]1(NC(=O)[C@@H]1C[C@@H](OC(=O)c2ccc(F)cc2)CN1C(=O)[C@@H](NC(=O)OC(C)(C)C)C(C)(C)C)C(=O)NS(=O)(=O)C1CC1 [Compound 2] | 200 to 1000 nM | 1 to 50 nM |
| C=C[C@@H]1C[C@]1(NC(=O)[C@@H]1C[C@@H](OC(=O)c2ccc(OC)cc2)CN1C(=O)[C@@H](NC(=O)OC(C)(C)C)C(C)(C)C)C(=O)NS(=O)(=O)C1CC1 [Compound 3] | 25 to 200 nM | 1 to 50 nM |
| C=C[C@@H]1C[C@]1(NC(=O)[C@@H]1C[C@@H](OC(=O)c2ccc(-c3ccccc3)cc2)CN1C(=O)[C@@H](NC(=O)OC(C)(C)C)C(C)(C)C)C(=O)NS(=O)(=O)C1CC1 [Compound 4] | 200 to 1000 nM | 1 to 50 nM |
| C=C[C@@H]1C[C@]1(NC(=O)[C@@H]1C[C@@H](OC(=O)c2ccc3ncccc3c2)CN1C(=O)[C@@H](NC(=O)OC(C)(C)C)C(C)(C)C)C(=O)NS(=O)(=O)C1CC1 [Compound 5] | 25 to 200 nM | 1 to 50 nM |
| C=C[C@@H]1C[C@]1(NC(=O)[C@@H]1C[C@@H](OC(=O)c2ccc3sccc3c2)CN1C(=O)[C@@H](NC(=O)OC(C)(C)C)C(C)(C)C)C(=O)NS(=O)(=O)C1CC1 [Compound 6] | 25 to 200 nM | 1 to 50 nM |
| C=C[C@@H]1C[C@]1(NC(=O)[C@@H]1C[C@@H](OC(=O)c2ccc3c(c2)CCO3)CN1C(=O)[C@@H](NC(=O)OC(C)(C)C)C(C)(C)C)C(=O)NS(=O)(=O)C1CC1 [Compound 7] | 25 to 200 nM | 1 to 50 nM |
